Source: publication PMC12799219, “In vitro and in vivo studies on the activity and selectivity of butoconazole in experimental infection by Trypanosoma cruzi” (Memórias do Instituto Oswaldo Cruz, 2026)
Read-outs that look alike come from different tables or passages of the source.

Legend:
[1] = test system: T. cruzi intracellular forms (Tulahuen strain); test: In vitro activity on intracellular forms of T. cruzi in L929 cells (β-galactosidase/CPRG); type: cell-based, Trypanosoma cruzi; conditions: for EC90: read-out: Activity against T. cruzi intracellular forms EC90
Method: In vitro activity on intracellular forms of T. cruzi - L929 cells previously seeded in 96-well plates (4 x 10^3 cells/well) were infected (ratio of 10 parasites:1 host cell) for 2 h with trypomastigote forms (Tulahuen strain transfected with the β-galactosidase gene, DTU VI).

[2] = Cytotoxicity assay on L929 fibroblasts (AlamarBlue); type: cell-based; conditions: mouse
Method: Mammalian cell cultures - L929 fibroblast lineage were cultured in Roswell Park Memorial Institute 1640 medium without phenol red (RPMI - Sigma-Aldrich, St. Louis, MO, USA), supplemented with 10% foetal bovine serum (FBS - Cultilab - SP - Brazil) and 2 mM glutamine (Sigma-Aldrich, St. Louis, MO, USA) with pH 7.2 - 7.4, as previously reported.[21] H9C2, cardiomyoblast cultures, were maintained in Dulbecco’s Modified Eagle’s Medium (DMEM) high glucose (4500 mg/L) medium supplemented (Sigma-Aldrich, St. Louis, MO, USA) with 10% FBS (Cultilab - SP -Brazil), 2 mM glutamine (Sigma-Aldrich, St. Louis, MO, USA) and 100 μg/mL penicillin/streptomycin (Sigma-Aldrich, St. Louis, MO, USA).[22] Both cell cultures maintained at 37 °C under an atmosphere of 5% CO2, with weekly dissociation protocol using 0.01% trypsin.
Cytotoxicity assay - The toxicity of the compounds was evaluated on two mammalian cell lines (L929 and H9C2), as reported.[21] The cells were seeded in 96-well plates (4 x 10^3 cells/well - for L929; 25x10^3 cells/well - for H9C2) and incubated at 37 °C and 5% CO2. The L929 cultures were kept under treatment for 96 and 168 h with a serial dilution (1:2) of the compounds (up to 400 μM). After the treatment periods, the AlamarBlue® reagent (Thermo Fisher Scientific Inc) was added and incubated for 24 h. The H9C2 cultures were also treated in serial dilution up to 200 μM for 24 h. PrestoBlue® reagent (Thermo Fisher Scientific Inc) was added to the cultures and incubated for 3 h. All plates were analysed in the spectrophotometer SpectraMaxM3 (570 and 600 nm) and LC50 values (concentration capable of inducing loss of viability in 50% of the cells) determined.[21] All assays were done at least twice, in triplicates.

[3] = test system: T. cruzi (Y strain) blood trypomastigotes; test: In vitro activity on bloodstream trypomastigotes; type: cell-based, Trypanosoma cruzi; conditions: for EC90 / EC50: Trypanosoma cruzi
Method: In vitro activity on bloodstream trypomastigotes - Swiss male mice were inoculated with 5 x 10^4 bloodstream trypomastigotes (BT, Y strain, DTU II) and at the parasitaemia peak [8th post-infection (dpi)], euthanised using 3% isoflurane and blood samples obtained by cardiac puncture (CEUA FIOCRUZ L038-2017). Then, 100 μL of parasite suspension (10^7/mL in RPMI medium + 5% FBS) was added to the same volume of RPMI + 5% FBS containing treatment with BTZ (serially diluted - 1:2) at twice the desired final concentration. After 2 and 24 h at 37 °C, the number of live parasites was determined by light microscopy quantification using a Neubauer chamber.[6] Untreated controls were carried out with parasites kept under the same conditions and BZ was run in parallel. The activity of the compounds was expressed by the EC50 and EC90 values. The assays were done at least twice, in duplicate.

[4] = test system: T. cruzi intracellular forms (Tulahuen strain) in L929 cell lines; test: Drug combination (fixed-ratio, FICI) on intracellular forms of T. cruzi; type: cell-based, Trypanosoma cruzi; set-up: Drug concentration (EC50 in fixed-ratio series): unit not given here
Method: Drug combination on intracellular forms of T. cruzi - L929 were seeded in 96-well plates (4 x 10^3 cells/well) and infected with T. cruzi (Tulahuen strain). Predetermined EC50 values were used to determine the top concentrations of the test compounds under fixed ratios ensuring that EC50 fell in the midpoint of a seven-point two-fold dilution series. The fixed ratios were 5:0, 4:1, 3:2, 2:3, 1:4 and 0:5.[24] ^, [25] According to Odds (2003), the Fractional Inhibitory Concentration Indexes (FICI) was calculated by the ratio of the EC50 values of each ratio of the combinations/EC50 of each compound alone. Finally, the sum of the FICIs (ƩFICI) is calculated to classify the interaction nature of the combinations.[26] ΣFICI ≤ 0.5 = Synergism; ΣFICI between 0.5 and 4 = additive (No interaction); ΣFICI > 4 = antagonism. At least two independent experiments were performed in triplicate.

[5] = test system: T. cruzi satDNA; test: In vivo efficacy by qPCR (T. cruzi satDNA) in blood and heart; set-up: species or system Swiss male mice; conditions: for qPCR on blood samples, parasite DNA amplification: first trial, surviving mice: BZ 25 mg/kg/day, BTZ 45.61 mg/kg/day; for qPCR on blood samples, animals that amplified parasite DNA: second trial, higher doses: BZ 100, BTZ 182.44 mg/kg/day
Method: In vivo efficacy assessments by qPCR evaluations - At the end point, the animals were weighed; euthanised and submitted to cardiac puncture. 500 μL of fresh blood was collected and added to 1 mL of guanidine. The DNA was extracted from 300 μL of guanidine-EDTA blood, using the kit High Pure PCR Template Preparation (Roche diagnostics, Mannhein, Germany), according to the manufacturer's instructions. At the last step of the protocol, DNA was eluted in 100 μL of elution buffer. Also, cardiac tissues were collected, weighed and fragmented using a scalpel, 200 μL of Tissue Lysis Buffer was added and samples immediately placed in Styrofoam with dry ice. Blood and heart tissues were stored in the freezer at […] until analysis by qPCR. Heart tissues were homogenised using a Tissue Homogeneizer (Qiagen). DNA was extracted using the kit High Pure PCR Template Preparation (Roche diagnostics, Mannhein, Germany), according to the manufacturer's instructions for tissue samples. qPCR was done using a TaqMan multiplex assay, targeting T. cruzi […] and mouse GAPDH, as an endogenous control, and to normalise the parasite load. To obtain standard curves, serial dilutions of the DNA were prepared in appropriate plates for the assay. After normalising the results obtained on the samples, the parasite load was expressed as parasite equivalents/mL when evaluated in blood, or parasite equivalents/mg when in mouse tissue. In all trials, positive and negative controls were also tested in parallel.

[6] = Trypanosoma cruzi, TULAHUEN, L929, 96 h, read-out: Activity against T. cruzi intracellular forms EC50, Tulahuen strain in L929, 96 h
[7] = 2 h, read-out: Activity on T. cruzi (Y strain) blood trypomastigotes EC50
[8] = 24 h, read-out: Activity on T. cruzi (Y strain) blood trypomastigotes EC50
[9] = 24 h, read-out: Activity on T. cruzi (Y strain) blood trypomastigotes pEC50 (converted)

`Clc1ccc(CCC(Cn2ccnc2)Sc2c(Cl)cccc2Cl)cc1` (stereo not shown) [BTZ, butoconazole] showed an EC50 ([1]; Trypanosoma cruzi, TULAHUEN, L929, 96 h, Tulahuen strain in L929, 96 h, read-out: Activity against T. cruzi intracellular forms pEC50 (converted)) of 0.0708 µM, an EC50 [1, 6] of 0.075 µM and an EC90 ([1]; Trypanosoma cruzi, Tulahuen strain in L929, 96 h) of 3.88 ± 0.45 µM. For the same compound, the EC50 ([1]; Tulahuen strain in L929, 96 h, read-out: Activity against T. cruzi intracellular forms EC50) was 0.07 ± 0.02 µM, the CC50 at 96 h [2] was 23.9 ± 1.1 µM and the CC50 at 168 h [2] was 17.5 ± 3.24 µM. For the same compound, the EC50 at 168 h [2] was 24 µM, the “fold less potent than BZ on bloodstream trypomastigotes” value ([3]; 24 h, EC50 versus BZ) was 2.3 fold and the EC90 ([3]; 2 h) was over 20 µM. It also gave an EC50 [3, 7] of over 20 µM, an EC90 ([3]; 24 h) of 18.64 ± 0.11 µM and an EC50 [3, 8] of 13.8 ± 0.7 µM. The EC50 [3, 9] was 14.1 µM, the FICI ([4]; proportion BTZ:BZ 0:5) was 0 and the “Drug concentration (EC50 in fixed-ratio series)” value ([4]; proportion BTZ:BZ 1:4) was 0.008. The FICI ([4]; proportion BTZ:BZ 1:4) was 0.26, the “Drug concentration (EC50 in fixed-ratio series)” value ([4]; proportion BTZ:BZ 2:3) was 0.012 and the FICI ([4]; proportion BTZ:BZ 2:3) was 0.37. For the same compound, the “Drug concentration (EC50 in fixed-ratio series)” value ([4]; proportion BTZ:BZ 3:2) was 0.006, the FICI ([4]; proportion BTZ:BZ 3:2) was 0.20 and the “Drug concentration (EC50 in fixed-ratio series)” value ([4]; proportion BTZ:BZ 4:1) was 0.024. The FICI ([4]; proportion BTZ:BZ 4:1) was 0.76, the “Drug concentration (EC50 in fixed-ratio series)” value ([4]; proportion BTZ:BZ 5:0) was 0.031 and the FICI ([4]; proportion BTZ:BZ 5:0) was 1. For the same compound, the “mice with negative qPCR in cardiac samples” value ([5]; BTZ 184 mg/kg/day as printed) was “two of five”, the “qPCR on blood samples, parasite DNA amplification” value [5] was “negative (three of three animals)” and the “qPCR on blood samples, animals that amplified parasite DNA” value [5] was “only one animal”.

`O=C(Cn1ccnc1[N+](=O)[O-])NCc1ccccc1` [BZ, benznidazole] gave an EC50 [1, 6] of 1.73 ± 0.16 µM, an EC90 ([1]; Trypanosoma cruzi, TULAHUEN, L929, 96 h) of 7.65 ± 1.69 µM and an EC50 ([1]; Trypanosoma cruzi, TULAHUEN, L929, 96 h, read-out: Activity against T. cruzi intracellular forms pEC50, Tulahuen strain in L929, 96 h (converted)) of 1.74 µM. The CC50 at 96 h [2] was over 400 µM, the CC50 at 168 h [2] was over 200 µM and the EC50 at 168 h ([2]; L929 fibroblast cells, printed in the 168 h column, read-out: Cytotoxicity on L929 cells pEC50 (converted)) was over 200 µM. The EC90 ([3]; 2 h) was over 20 µM, the EC50 [3, 7] was over 20 µM and the EC90 ([3]; 24 h) was 17.5 ± 0.65 µM. The EC50 [3, 8] was 5.93 ± 0.15 µM, the EC50 [3, 9] was 6.03 µM and the “Drug concentration (EC50 in fixed-ratio series)” value ([4]; proportion BTZ:BZ 0:5) was 1.445. For the same compound, the FICI ([4]; proportion BTZ:BZ 0:5) was 1, the “Drug concentration (EC50 in fixed-ratio series)” value ([4]; proportion BTZ:BZ 1:4) was 0.138 and the FICI ([4]; proportion BTZ:BZ 1:4) was 0.10. The “Drug concentration (EC50 in fixed-ratio series)” value ([4]; proportion BTZ:BZ 2:3) was 0.219, the FICI ([4]; proportion BTZ:BZ 2:3) was 0.15 and the “Drug concentration (EC50 in fixed-ratio series)” value ([4]; proportion BTZ:BZ 3:2) was 0.402. For the same compound, the FICI ([4]; proportion BTZ:BZ 3:2) was 0.28, the “Drug concentration (EC50 in fixed-ratio series)” value ([4]; proportion BTZ:BZ 4:1) was 0.738 and the FICI ([4]; proportion BTZ:BZ 4:1) was 0.51. The FICI ([4]; proportion BTZ:BZ 5:0) was 0, the “negative qPCR in cardiac samples” value ([5]; BZ 100 mg/kg/day) was 100% and the “qPCR on blood samples, parasite DNA amplification” value [5] was “parasite DNA was amplified in all animals”. The “qPCR on blood samples, animals that amplified parasite DNA” value [5] was “only one animal”.
